One experiment deals with JAK-2 enzyme (Homo sapiens, UniProt O60674). The experiment is described as follows: JAK2 Inhibition Assay. The following applies: 15 μM poly(Glu)4Tyr, 12 μM ATP, 25° C. The experiment is classed as biochemical. On the procedure:
(§1) Compounds were screened for their ability to inhibit JAK3 using the assay shown below. Reactions were carried out in a kinase buffer containing 100 mM HEPES (pH 7.4), 1 mM DTT, 10 mM MgCl2, 25 mM NaCl, and 0.01% BSA. Substrate concentrations in the assay were 5 μM ATP (200 uCi/μmole ATP) and 1 μM poly(Glu)4Tyr. Reactions were carried out at 25° C. and 1 nM JAK3.
(§2) To each well of a 96 well polycarbonate plate was added 1.5 μl of a candidate JAK3 inhibitor along with 50 μl of kinase buffer containing 2 μM poly(Glu)4Tyr and […]. This was then mixed and […] of kinase buffer containing 2 nM JAK3 enzyme was added to start the reaction. After 20 minutes at room temperature (25° C.), the reaction was stopped with 50 μl of 20% trichloroacetic acid (TCA) that also contained 0.4 mM ATP. The entire contents of each well were then transferred to a 96 well glass fiber filter plate using a TomTek Cell Harvester. After washing, 60 μl of scintillation fluid was added and ^33P incorporation detected on a Perkin Elmer TopCount.
The assays were as described above in Example 36 except that JAK-2 enzyme was used, the final poly(Glu)4Tyr concentration was 15 μM, and final ATP concentration was 12 μM.
(§3) Tables 5 and 6 depict enzyme inhibition data (Ki) for certain exemplary compounds. Compound numbers in Tables 5 and 6 correspond to those compounds depicted in Tables 1 and 2, respectively.

For the next experiment, the target named is T1, JAK3 (Homo sapiens, UniProt P52333).
T1 sequence (P52333 1-1124): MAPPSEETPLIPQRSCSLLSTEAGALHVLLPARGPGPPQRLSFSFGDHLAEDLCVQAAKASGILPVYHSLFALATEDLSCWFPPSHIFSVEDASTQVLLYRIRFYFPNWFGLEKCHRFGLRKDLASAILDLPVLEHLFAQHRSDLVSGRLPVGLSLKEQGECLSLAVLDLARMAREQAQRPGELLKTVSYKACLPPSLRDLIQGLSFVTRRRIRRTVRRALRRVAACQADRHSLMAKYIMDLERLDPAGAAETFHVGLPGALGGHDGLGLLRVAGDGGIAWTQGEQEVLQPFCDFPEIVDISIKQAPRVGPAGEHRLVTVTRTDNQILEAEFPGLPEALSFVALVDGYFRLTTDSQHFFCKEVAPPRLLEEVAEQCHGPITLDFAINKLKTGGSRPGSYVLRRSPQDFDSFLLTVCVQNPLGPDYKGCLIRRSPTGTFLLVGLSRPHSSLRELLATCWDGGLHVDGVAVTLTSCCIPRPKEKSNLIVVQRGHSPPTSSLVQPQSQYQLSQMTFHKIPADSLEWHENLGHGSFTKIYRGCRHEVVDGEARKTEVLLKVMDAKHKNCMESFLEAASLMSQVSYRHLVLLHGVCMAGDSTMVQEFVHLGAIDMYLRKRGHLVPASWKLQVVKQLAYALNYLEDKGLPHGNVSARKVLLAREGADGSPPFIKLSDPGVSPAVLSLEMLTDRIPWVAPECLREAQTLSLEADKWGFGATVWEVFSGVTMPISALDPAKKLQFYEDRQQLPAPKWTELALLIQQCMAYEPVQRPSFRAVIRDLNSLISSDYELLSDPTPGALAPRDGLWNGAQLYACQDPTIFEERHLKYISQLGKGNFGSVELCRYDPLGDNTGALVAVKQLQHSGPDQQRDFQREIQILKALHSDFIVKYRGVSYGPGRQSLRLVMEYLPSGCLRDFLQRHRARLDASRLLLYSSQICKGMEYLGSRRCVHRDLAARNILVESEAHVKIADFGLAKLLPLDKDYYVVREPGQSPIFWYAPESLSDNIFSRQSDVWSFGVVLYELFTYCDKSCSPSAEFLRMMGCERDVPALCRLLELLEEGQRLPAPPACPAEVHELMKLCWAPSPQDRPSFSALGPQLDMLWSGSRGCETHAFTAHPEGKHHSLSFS
As to the kind of experiment: JAK3 Inhibition Assay. The class given is biochemical. The following applies: 1 μM poly(Glu)4Tyr, 5 μM ATP, 1 nM JAK3, 25° C.; read-out: JAK3 enzyme inhibition data (Ki). The method, then: as §1, §2, §3

Bounds are passed on as bounds.

Usually Ki stands for a measure of affinity in units of concentration, obtained from inhibition or displacement.

JAK-2 enzyme, sequence (O60674 whole entry, species assumed): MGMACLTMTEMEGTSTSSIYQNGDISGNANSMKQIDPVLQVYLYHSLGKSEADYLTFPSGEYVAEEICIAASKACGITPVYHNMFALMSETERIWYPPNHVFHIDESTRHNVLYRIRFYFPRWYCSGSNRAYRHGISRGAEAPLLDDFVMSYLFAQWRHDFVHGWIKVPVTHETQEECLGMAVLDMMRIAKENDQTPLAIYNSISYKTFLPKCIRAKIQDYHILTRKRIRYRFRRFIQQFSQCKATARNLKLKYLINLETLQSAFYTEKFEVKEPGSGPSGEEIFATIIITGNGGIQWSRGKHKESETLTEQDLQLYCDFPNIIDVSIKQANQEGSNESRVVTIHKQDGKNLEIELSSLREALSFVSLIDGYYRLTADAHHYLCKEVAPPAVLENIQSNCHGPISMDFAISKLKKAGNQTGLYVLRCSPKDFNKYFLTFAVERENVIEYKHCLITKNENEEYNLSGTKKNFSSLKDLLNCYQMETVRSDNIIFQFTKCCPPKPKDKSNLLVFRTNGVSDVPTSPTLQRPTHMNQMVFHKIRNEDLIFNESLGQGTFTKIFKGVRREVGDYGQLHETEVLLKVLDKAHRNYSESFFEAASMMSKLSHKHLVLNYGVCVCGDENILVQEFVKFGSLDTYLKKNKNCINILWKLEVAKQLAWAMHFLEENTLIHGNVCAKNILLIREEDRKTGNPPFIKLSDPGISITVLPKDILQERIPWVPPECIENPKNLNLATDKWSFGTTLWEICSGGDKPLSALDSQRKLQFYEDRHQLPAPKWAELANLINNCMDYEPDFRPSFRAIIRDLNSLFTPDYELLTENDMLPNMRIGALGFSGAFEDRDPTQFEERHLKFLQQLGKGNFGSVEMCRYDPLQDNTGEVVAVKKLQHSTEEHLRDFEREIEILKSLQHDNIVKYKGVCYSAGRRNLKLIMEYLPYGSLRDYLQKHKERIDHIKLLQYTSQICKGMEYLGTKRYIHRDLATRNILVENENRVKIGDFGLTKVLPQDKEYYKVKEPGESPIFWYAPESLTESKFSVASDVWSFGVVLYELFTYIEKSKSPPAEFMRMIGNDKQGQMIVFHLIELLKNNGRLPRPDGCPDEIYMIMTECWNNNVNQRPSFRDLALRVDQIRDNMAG

Take `CCN(CCC#N)C(=O)c1cc(-c2ncnc3[nH]cc(C)c23)c[nH]1` [Compound 207]: the inhibition constant (Ki) at JAK-2 enzyme was under 100 nM; on JAK3, 100 to 500 nM.

Consider `COCCN(C)C(=O)c1cc(-c2ncnc3[nH]cc(C)c23)c[nH]1` [Compound 200], for which the Ki lay in the range of 100 to 500 nM on JAK-2 enzyme and 500 to 5000 nM on JAK3.

Consider `Cc1c[nH]c2ncnc(-c3c[nH]c(C(=O)N(CCC(F)(F)F)CC4CC4)c3)c12` [Compound 208], for which the inhibition constant (Ki) at JAK-2 enzyme and at JAK3 was under 100 nM each time.

Consider `O=C(Nc1nc(-c2ncnc3[nH]ccc23)cs1)C1CCC1` [Compound 57], for which the Ki at JAK-2 enzyme and at JAK3 was under 100 nM throughout.

Consider `O=C(c1ccc(-c2ncnc3[nH]ccc23)o1)N(CCC(F)(F)F)CC1CC1` [Compound 122], for which the Ki on JAK-2 enzyme and on JAK3 was under 100 nM in each case.

Turning to `NC(=O)C1CCCN1C(=O)c1ccc(-c2ncnc3[nH]ccc23)o1` (stereo not drawn) [Compound 221], the Ki at JAK-2 enzyme and on JAK3 was 500 to 5000 nM each time.

Consider `O=C(c1ccc(-c2ncnc3[nH]ccc23)o1)N(CC1CC1)CC(F)(F)F` [Compound 120], for which the inhibitory constant (Ki) at JAK-2 enzyme and on JAK3 was under 100 nM throughout.

With `C=CCN(C(=O)c1cc(-c2ncnc3[nH]ccc23)co1)[C@@H](C)c1ccccc1` [Compound 248], the inhibition constant (Ki) was under 100 nM on JAK-2 enzyme and 100 to 500 nM at JAK3.

Take `N#CCCN(CC1CCCO1)C(=O)c1cc(-c2ncnc3[nH]ccc23)c[nH]1` (stereo not drawn) [Compound 136]: the inhibition constant Ki on JAK-2 enzyme is under 100 nM; on JAK3, 100 to 500 nM.

Regarding `CC(C)n1cc(-c2ncnc3[nH]ccc23)cn1` [Compound 34], the Ki at JAK-2 enzyme and at JAK3 was under 100 nM each time.

With `CC1CC[C@@H](C)N1C(=O)c1coc(-c2ncnc3[nH]ccc23)c1` (stereo partly drawn) [Compound 197], the Ki at JAK-2 enzyme is under 100 nM; on JAK3, 500 to 5000 nM.

In the case of `CCN(CC)C(=O)C(C)n1cc(-c2ncnc3[nH]ccc23)cn1` (stereo not drawn) [Compound 88], the Ki at JAK-2 enzyme is 100 to 500 nM; on JAK3 it was under 100 nM.

As to `CCCN(CCC#N)C(=O)c1cc(-c2ncnc3[nH]ccc23)c[nH]1` [Compound 21], the Ki at JAK-2 enzyme and at JAK3 was under 100 nM in each case.

On to `CCN(Cc1ccccc1)C(=O)c1cc(-c2ncnc3[nH]ccc23)c[nH]1` [Compound 30], for which the inhibition constant (Ki) on JAK-2 enzyme and on JAK3 was under 100 nM each time.

In the case of `CC(C)(C)OC(=O)N1CCC(C(=O)Nc2nc(-c3ncnc4[nH]ccc34)cs2)CC1` [Compound 178], the Ki at JAK-2 enzyme and at JAK3 was 100 to 500 nM in each case.

As for `O=C(Nc1nc(-c2ncnc3[nH]ccc23)cs1)C1CCN(C(=O)c2ccccc2)CC1` [Compound 173], the inhibitory constant (Ki) at JAK-2 enzyme and at JAK3 was under 100 nM each time.

Take `O=C(c1cc(-c2ncnc3[nH]ccc23)co1)N(CC1CCC1)CC(F)(F)F` [Compound 251]: the Ki on JAK-2 enzyme and at JAK3 was 100 to 500 nM each time.

In the case of `O=C(c1cc(-c2ncnc3[nH]ccc23)c[nH]1)N1CCCC1C(F)(F)F` (stereo not drawn) [Compound 53], the Ki was under 100 nM at JAK-2 enzyme and 100 to 500 nM at JAK3.

`CCCCN(CC)C(=O)c1cc(-c2ncnc3[nH]cc(C)c23)c[nH]1` [Compound 201]: the figures for the Ki at JAK-2 enzyme and on JAK3 were under 100 nM and 100 to 500 nM, respectively.

On to `C[C@@H]1CC[C@@H](C)N1C(=O)c1cc(-c2ncnc3[nH]cc(Cl)c23)c[nH]1` [Compound 213], for which the Ki at JAK-2 enzyme and on JAK3 was under 100 nM each time.

`O=C(c1cc(-c2ncnc3[nH]ccc23)c[nH]1)N(CC1CCCC1)CC(F)(F)F` [Compound 186]: the Ki on JAK-2 enzyme was under 100 nM; at JAK3 it was 100 to 500 nM.

In the case of `O=C(Nc1nc(-c2ncnc3[nH]ccc23)cs1)C1CC=CC1` [Compound 59], the Ki at JAK-2 enzyme and on JAK3 was under 100 nM throughout.

As to `COc1ccc(C(=O)Nc2nc(-c3ncnc4[nH]ccc34)cs2)cc1` [Compound 175], the Ki on JAK-2 enzyme was under 100 nM; on JAK3, 100 to 500 nM.

On to `CC(C)CNC(=O)C(C)n1cc(-c2ncnc3[nH]ccc23)cn1` (stereo not drawn) [Compound 74], for which the figures for the Ki on JAK-2 enzyme and on JAK3 were 100 to 500 nM and under 100 nM, respectively.

These data come from US20090227607A1, “DEAZAPURINES USEFUL AS INHIBITORS OF JANUS KINASES” (priority 2006, published 2009).
